Measurements taken from patent publication US12559529B2, “NPY2 receptor agonists” (Boehringer Ingelheim International GmbH, priority 2019, dated 2026).
*1 amine or outer side, *2 acyl side, *3 side chain or, on linkers, in order; H or OH if unused. Where a SMILES comes first, the peptide text is derived from it. Side-chain parts run from the residue outwards. The star is where a group is joined. C18 diacid = O=C(O)CCCCCCCCCCCCCCCCC(=O)*; γGlu = O=C(O)[C@H](CCC(=O)[*:2])N[*:1]; Isovaleryl = CC(C)CC(=O)*; AEEA = NCCOCCOCC(=O)O

Each molecule was assayed against T1, Human Neuropeptide Y2 Receptor (Homo sapiens, UniProt P49146) (assay: Radioligand binding competition assay (RLB)). Details: Table 3; human 125I-PYY (1-36) 0.02 nM, Y2 receptor membranes; read-out: Ki.
T1 construct: purchased CHEMICON HTS066M
T1 sequence (P49146 1-381): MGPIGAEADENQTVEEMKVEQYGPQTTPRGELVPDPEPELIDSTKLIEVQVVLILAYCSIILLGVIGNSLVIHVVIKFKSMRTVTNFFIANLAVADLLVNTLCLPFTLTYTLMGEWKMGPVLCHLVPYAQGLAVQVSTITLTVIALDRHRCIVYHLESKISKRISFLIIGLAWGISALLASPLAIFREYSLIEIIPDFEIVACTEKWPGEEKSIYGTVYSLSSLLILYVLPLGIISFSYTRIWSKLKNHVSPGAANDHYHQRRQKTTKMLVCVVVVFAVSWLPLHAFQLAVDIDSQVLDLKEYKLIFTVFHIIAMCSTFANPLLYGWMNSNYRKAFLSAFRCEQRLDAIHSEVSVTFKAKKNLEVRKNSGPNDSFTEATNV
Method in brief: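 Peptide dilutions made in pH 7.4 HEPES assay buffer with 0.2% ovalbumin; human Y2 receptor membranes added at 0.5 μg protein/well; plates shaken 2 h at room temperature; reaction stopped by vacuum filtration onto PEI-treated GF/C filters with ice-cold high-salt washes; radioactivity counted by scintillation.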

Compound | Ki [nM]
CC(C)CC(=O)N[C@@H](C)C(=O)N1CCC[C@H]1C(=O)N[C@@H](CCC(=O)O)C(=O)N[C@@H](CCCCNC(=O)COCCOCCNC(=O)COCCOCCNC(=O)CC[C@H](NC(=O)CCCCCCCCCCCCCCCCC(=O)O)C(=O)O)C(=O)N1CCC[C@H]1C(=O)N[C@@H](CCC(=O)O)C(=O)N[C@@H](CCC(=O)O)C(=O)N[C@@H](CC(=O)O)C(=O)N[C@@H](CO)C(=O)N[C@@H](CO)C(=O)N1CCC[C@H]1C(=O)N[C@@H](C)C(=O)N[C@@H](CCC(=O)O)C(=O)N[C@@H](CC(C)C)C(=O)N[C@@H](CCC(N)=O)C(=O)N[C@@H](CCCNC(=N)N)C(=O)N[C@@H](Cc1ccc(O)cc1)C(=O)N[C@@H](Cc1ccc(O)cc1)C(=O)N[C@H](C(=O)N[C@@H](CO)C(=O)N[C@@H](CC(C)C)C(=O)N[C@@H](CCCNC(=N)N)C(=O)N[C@@H](Cc1c[nH]cn1)C(=O)N[C@@H](Cc1ccc(O)cc1)C(=O)N[C@@H](Cc1ccc(O)cc1)C(=O)N[C@@H](CC(N)=O)C(=O)N[C@@H](Cc1c[nH]c2ccccc12)C(=O)N[C@@H](CC(C)C)C(=O)N[C@H](C(=O)N[C@@H](CCCNC(=N)N)C(=O)N[C@@H](CCC(N)=O)C(=O)N[C@@H](CCCNC(=N)N)C(=O)N[C@@H](Cc1ccc(O)cc1)C(N)=O)[C@@H](C)O)C(C)C [Compound 87, N{alpha-4}-(3-methylbutanoyl)-N{epsilon-7}-[2-(2-{2-[2-(2-{2-[(4S)-4-carboxy-4-(17-carboxyheptadecanamido)butanamido]ethoxy}ethoxy)acetamido]ethoxy}ethoxy)acetamido]-[4A,7K,9E,12S,15A,18Q,22V,28Y,30W,31L]hPYY (4-36)] (Isovaleryl-APEK([AEEA-AEEA-γGlu-C18 diacid])PEEDSSPAELQRYYVSLRHYYNWLTRQRY-NH2) | 1.97
CC(C)CC(=O)N[C@@H](C)C(=O)N1CCC[C@H]1C(=O)N[C@@H](CCC(=O)O)C(=O)N[C@@H](CCCCNC(=O)COCCOCCNC(=O)COCCOCCNC(=O)CC[C@H](NC(=O)CCCCCCCCCCCCCCCCC(=O)O)C(=O)O)C(=O)N1CCC[C@H]1C(=O)N[C@@H](CCC(=O)O)C(=O)N[C@@H](CCC(=O)O)C(=O)N[C@@H](CCC(=O)O)C(=O)N[C@@H](C)C(=O)N[C@@H](CCC(=O)O)C(=O)N1CCC[C@H]1C(=O)N[C@@H](CCC(=O)O)C(=O)N[C@@H](CCC(=O)O)C(=O)N[C@@H](CC(C)C)C(=O)N[C@@H](CCC(N)=O)C(=O)N[C@@H](CCCNC(=N)N)C(=O)N[C@@H](Cc1ccc(O)cc1)C(=O)N[C@@H](Cc1ccc(O)cc1)C(=O)N[C@H](C(=O)N[C@@H](CO)C(=O)N[C@@H](CC(C)C)C(=O)N[C@@H](CCCNC(=N)N)C(=O)N[C@@H](Cc1c[nH]cn1)C(=O)N[C@@H](Cc1ccc(O)cc1)C(=O)N[C@@H](Cc1ccc(O)cc1)C(=O)N[C@@H](CC(N)=O)C(=O)N[C@@H](Cc1c[nH]c2ccccc12)C(=O)N[C@@H](CC(C)C)C(=O)N[C@H](C(=O)N[C@@H](CCCNC(=N)N)C(=O)N[C@@H](CCC(N)=O)C(=O)N[C@@H](CCCNC(=N)N)C(=O)N[C@@H](Cc1ccc(O)cc1)C(N)=O)[C@@H](C)O)C(C)C [Compound 89, N{alpha-4}-(3-methylbutanoyl)-N{epsilon-7}-[2-(2-{2-[2-(2-{2-[(4S)-4-carboxy-4-(17-carboxyheptadecanamido)butanamido]ethoxy}ethoxy)acetamido]ethoxy}ethoxy)acetamido]-[4A,7K,9E,11E,13E,18Q,22V,28Y,30W,31L]hPYY (4-36)] | 9.61
CC(C)CC(=O)N[C@@H](C)C(=O)N1CCC[C@H]1C(=O)N[C@@H](CCC(=O)O)C(=O)N[C@@H](CCCCNC(=O)COCCOCCNC(=O)COCCOCCNC(=O)CC[C@H](NC(=O)CCCCCCCCCCCCCCCCC(=O)O)C(=O)O)C(=O)N1CCC[C@H]1C(=O)N[C@@H](CCC(=O)O)C(=O)N[C@@H](CCC(=O)O)C(=O)N[C@@H](CC(=O)O)C(=O)N[C@@H](C)C(=O)N[C@@H](CO)C(=O)N1CCC[C@H]1C(=O)N[C@@H](CCC(=O)O)C(=O)N[C@@H](CCC(=O)O)C(=O)N[C@H](C(=O)N[C@@H](CCC(N)=O)C(=O)N[C@@H](CCCNC(=N)N)C(=O)N[C@@H](Cc1ccc(O)cc1)C(=O)N[C@@H](Cc1ccc(O)cc1)C(=O)N[C@H](C(=O)N[C@@H](CCC(=O)O)C(=O)N[C@@H](CC(C)C)C(=O)N[C@@H](CCCNC(=N)N)C(=O)N[C@@H](Cc1c[nH]cn1)C(=O)N[C@@H](Cc1ccc(O)cc1)C(=O)N[C@@H](Cc1ccc(O)cc1)C(=O)N[C@@H](CC(N)=O)C(=O)N[C@@H](Cc1c[nH]c2ccccc12)C(=O)N[C@@H](CC(C)C)C(=O)N[C@H](C(=O)N[C@@H](CCCNC(=N)N)C(=O)N[C@@H](CCC(N)=O)C(=O)N[C@@H](CCCNC(=N)N)C(=O)N[C@@H](Cc1ccc(O)cc1)C(N)=O)[C@@H](C)O)C(C)C)[C@@H](C)O [Compound 94, N{alpha-4}-(3-methylbutanoyl)-N{epsilon-7}-[2-(2-{2-[2-(2-{2-[(4S)-4-carboxy-4-(17-carboxyheptadecanamido)butanamido]ethoxy}ethoxy)acetamido]ethoxy}ethoxy)acetamido]-[4A,7K,9E,17T,18Q,22V,23E,28Y,30W,31L]hPYY (4-36)] | 2.07

Stronger by Ki, values ahead:

Ki [nM] | Compound
1.19 | CC(C)CC(=O)N[C@@H](C)C(=O)N1CCC[C@H]1C(=O)N[C@@H](CCC(=O)O)C(=O)N[C@@H](CCCCNC(=O)COCCOCCNC(=O)COCCOCCNC(=O)CC[C@H](NC(=O)CCCCCCCCCCCCCCCCC(=O)O)C(=O)O)C(=O)N1CCC[C@H]1C(=O)N[C@@H](CCC(=O)O)C(=O)N[C@@H](C)C(=O)N[C@@H](CC(=O)O)C(=O)N[C@@H](C)C(=O)N[C@@H](CO)C(=O)N1CCC[C@H]1C(=O)N[C@@H](CCC(=O)O)C(=O)N[C@@H](CCC(=O)O)C(=O)N[C@@H](CC(C)C)C(=O)N[C@@H](CCC(N)=O)C(=O)N[C@@H](CCCNC(=N)N)C(=O)N[C@@H](Cc1ccc(O)cc1)C(=O)N[C@@H](CCC(=O)O)C(=O)N[C@H](C(=O)N[C@@H](CO)C(=O)N[C@@H](CC(C)C)C(=O)N[C@@H](CCCNC(=N)N)C(=O)N[C@@H](Cc1c[nH]cn1)C(=O)N[C@@H](Cc1ccc(O)cc1)C(=O)N[C@@H](Cc1ccc(O)cc1)C(=O)N[C@@H](CC(N)=O)C(=O)N[C@@H](Cc1c[nH]c2ccccc12)C(=O)N[C@@H](CC(C)C)C(=O)N[C@H](C(=O)N[C@@H](CCCNC(=N)N)C(=O)N[C@@H](CCC(N)=O)C(=O)N[C@@H](CCCNC(=N)N)C(=O)N[C@@H](Cc1ccc(O)cc1)C(N)=O)[C@@H](C)O)C(C)C [Compound 86, N{alpha-4}-(3-methylbutanoyl)-N{epsilon-7}-[2-(2-{2-[2-(2-{2-[(4S)-4-carboxy-4-(17-carboxyheptadecanamido)butanamido]ethoxy}ethoxy)acetamido]ethoxy}ethoxy)acetamido]-[4A,7K,9E,10A,18Q,21E,22V,28Y,30W,31L]hPYY (4-36)] (Isovaleryl-APEK([AEEA-AEEA-γGlu-C18 diacid])PEADASPEELQRYEVSLRHYYNWLTRQRY-NH2)
1.57 | CC(C)CC(=O)N[C@@H](C)C(=O)N1CCC[C@H]1C(=O)N[C@@H](CCC(=O)O)C(=O)N[C@@H](CCCCNC(=O)COCCOCCNC(=O)COCCOCCNC(=O)CC[C@H](NC(=O)CCCCCCCCCCCCCCCCC(=O)O)C(=O)O)C(=O)N1CCC[C@H]1C(=O)N[C@@H](CCC(=O)O)C(=O)N[C@@H](CCC(=O)O)C(=O)N[C@@H](CC(=O)O)C(=O)N[C@H](C(=O)N[C@@H](CO)C(=O)N1CCC[C@H]1C(=O)N[C@@H](CCC(=O)O)C(=O)N[C@@H](CCC(=O)O)C(=O)N[C@@H](CC(C)C)C(=O)N[C@@H](CCC(N)=O)C(=O)N[C@@H](CCCNC(=N)N)C(=O)N[C@@H](Cc1ccc(O)cc1)C(=O)N[C@@H](Cc1ccc(O)cc1)C(=O)N[C@H](C(=O)N[C@@H](CO)C(=O)N[C@@H](CC(C)C)C(=O)N[C@@H](CCCNC(=N)N)C(=O)N[C@@H](Cc1c[nH]cn1)C(=O)N[C@@H](Cc1ccc(O)cc1)C(=O)N[C@@H](Cc1ccc(O)cc1)C(=O)N[C@@H](CC(N)=O)C(=O)N[C@@H](Cc1c[nH]c2ccccc12)C(=O)N[C@@H](CC(C)C)C(=O)N[C@H](C(=O)N[C@@H](CCCNC(=N)N)C(=O)N[C@@H](CCC(N)=O)C(=O)N[C@@H](CCCNC(=N)N)C(=O)N[C@@H](Cc1ccc(O)cc1)C(N)=O)[C@@H](C)O)C(C)C)[C@@H](C)O [Compound 92, N{alpha-4}-(3-methylbutanoyl)-N{epsilon-7}-[2-(2-{2-[2-(2-{2-[(4S)-4-carboxy-4-(17-carboxyheptadecanamido)butanamido]ethoxy}ethoxy)acetamido]ethoxy}ethoxy)acetamido]-[4A,7K,9E,12T,18Q,22V,28Y,30W,31L]hPYY (4-36)]
